Assay results reported in US20210038681A1, “PHARMACEUTICAL COMPOSITION FOR TREATING VIRAL HEPATITIS C” (priority 2018, published 2021).
Where two headings read alike, the source gives them in different places.

Experiments:
[1] = test system: HCV genotype 1a replicon cells; assay: Standard 3-day HCV replicon assay; format: cell-based; conditions: Hepatitis C virus, 72 h, 3 days, 5% fetal bovine serum
[2] = test system: HCV genotype 5a NS5A replicon cells; assay: Standard 3-day HCV replicon assay; format: cell-based; conditions: Hepatitis C virus, 72 h
[3] = test system: influenza B virus (Flu-B); assay: Virus-cell protection assay; format: cell-based; conditions: cell line MDCK
HCV 1a WT replicon = assay: microbe, parasite or virus in culture; format: cell-based
Text: (§1) The susceptibility degrees of WT replicons in the transient assay were similar to the values obtained from a cell assay using the stable HCV replicons.

HCV 1a Y93H replicon = assay: microbe, parasite or virus in culture; format: cell-based
Text: as §1

HCV 1a Y93N replicon = assay: microbe, parasite or virus in culture; format: cell-based
Text: as §1

HCV 1b L31F replicon = assay: microbe, parasite or virus in culture; format: cell-based
Text: as §1

HCV 1b L31V replicon = assay: microbe, parasite or virus in culture; format: cell-based
Text: as §1

HCV 1b WT replicon = assay: microbe, parasite or virus in culture; format: cell-based
Text: as §1

HCV 4a NS5A WT replicon = assay: microbe, parasite or virus in culture; format: cell-based
Text: as §1

[4] = test system: HCV 4a NS5A Y93H replicon; assay: microbe, parasite or virus in culture; format: cell-based
Text: as §1

[5] = test system: HCV 5a NS5A L31F replicon; assay: microbe, parasite or virus in culture; format: cell-based
Text: as §1

HCV 5a NS5A WT replicon = assay: microbe, parasite or virus in culture; format: cell-based
Text: as §1

HCV 6a NS5A WT replicon = assay: microbe, parasite or virus in culture; format: cell-based
Text: as §1

HeLa cells = conditions: HeLa H1A cells, 10,000 nM
MDCK cells = conditions: MDCK cells, 10,000 nM
in vitro = conditions: cattle, BT cells (uninfected)
[6] = test system: HCV 1a Wild-type replicon; assay: microbe, parasite or virus in culture; conditions: Hepatitis C virus, Huh-7, read-out: Mean EC50 (nM) ± SD
[7] = Hepatitis C virus, read-out: Mean EC50 (nM) ±SD

COC(=O)N[C@H](C(=O)N1CCC[C@H]1c1ncc(-c2ccc3cc(-c4ccc5nc([C@@H]6CCCN6C(=O)[C@@H](NC(=O)OC)C(C)C)[nH]c5c4)ccc3c2)[nH]1)C(C)C [ASC16, Ravidasvir]
EC50 ([1]; read-out: EC50): 0.09 ng/mL
EC50 ([1]; read-out: EC50 (nM) Mean ± SD): 0.12 ± 0.01 nM
EC90 ([1]; read-out: EC90): 0.24 ng/mL
EC90 ([1]; read-out: EC90 (nM) Mean ± SD): 0.32 ± 0.02 nM
EC50 [2]: 0.03 ng/mL
EC90 [2]: 0.1 ng/mL
EC50 ([2]; read-out: EC50 (nM) Mean ± SD): 0.04 ± 0.01 nM
EC90 ([2]; read-out: EC90 (nM) Mean ± SD): 0.12 ± 0.02 nM
EC50 [3]: > 5000 nM
Fold change (HCV 1a WT replicon; HCV genotype 1a, WT, EC50 relative to WT): 1
EC50 (HCV 1a WT replicon; [7]): 0.03 ± 0.002 nM
Fold change (HCV 1a Y93H replicon; HCV genotype 1a, variant Y93H, EC50 relative to WT): 1,630
EC50 (HCV 1a Y93H replicon; [7]): 48 ± 1 nM
Fold change (HCV 1a Y93N replicon; HCV genotype 1a, variant Y93N, EC50 relative to WT): 3,876
EC50 (HCV 1a Y93N replicon; Hepatitis C virus, read-out: Mean EC50 (nM) ±SD, HCV genotype 1a, variant Y93N): > 100 nM
EC50 (HCV 1a Y93N replicon; read-out: Mean EC50 (nM) ±SD, HCV genotype 1a, variant Y93N): 113 ± 7.3 nM
Fold change (HCV 1b L31F replicon; HCV genotype 1b, variant L31F, EC50 relative to WT): 4.0
EC50 (HCV 1b L31F replicon; [7]): 0.05 ± 0.009 nM
Fold change (HCV 1b L31V replicon; HCV genotype 1b, variant L31V, EC50 relative to WT): 85
EC50 (HCV 1b L31V replicon; [7]): 0.9 ± 0.1 nM
Fold change (HCV 1b WT replicon; HCV genotype 1b, WT, EC50 relative to WT): 1
EC50 (HCV 1b WT replicon; [7]): 0.01 ± 0.003 nM
Fold change (HCV 4a NS5A WT replicon; HCV genotype 4a, WT, EC50 relative to WT): 1
EC50 (HCV 4a NS5A WT replicon; [7]): 0.02 ± 0.004 nM
Fold change ([4]; HCV genotype 4a, variant Y93H, EC50 relative to WT): 210
EC50 [4, 7]: 3.2 ± 0.2 nM
Fold change ([5]; HCV genotype 5a, variant L31F, EC50 relative to WT): 76
EC50 [5, 7]: 6.1 ± 0.8 nM
Fold change (HCV 5a NS5A WT replicon; HCV genotype 5a, WT, EC50 relative to WT): 1
EC50 (HCV 5a NS5A WT replicon; [7]): 0.08 ± 0.04 nM
Fold change (HCV 6a NS5A WT replicon; HCV genotype 6a, WT, EC50 relative to WT): 1
EC50 (HCV 6a NS5A WT replicon; [7]): 0.2 ± 0.04 nM
cytotoxicity at the highest test concentration (HeLa cells): significant cytotoxicity
cytotoxicity at the highest test concentration (MDCK cells): significant cytotoxicity
CC50 (in vitro): > 10000 nM
EC50 [6]: 0.03 nM
